Laboratory results published in US20220204473A1, “COMPOUND AS IRAK INHIBITOR” (SHANGHAI MEIYUE BIOTECH DEVELOPMENT CO., LTD., priority 2018, published 2022).

Assays:
[1] = tested on: IL-6 release in LPS-induced Balb/c female mice; experiment: Inhibition of IL-6 release in LPS-induced Balb/c female mice; format: in vivo, mouse; set-up: concentration or dose not given beside the values; settings: administered 5 h before LPS induction, serum
Experimental: Objective of the test: To determine the inhibitory effect of the compounds by measuring the plasma IL-6 concentration in a Balb/c mouse model with LPS-induced inflammation.
2.1 Prepared mouse serum samples (sample batch no. 20181218)
4.1 Reagent kit was equilibrated at room temperature (25-28° C.) for 20 min. After each detection, the remaining reagents were stored at 4° C.
4.3 Preparing reference standard: 1 vial of reference standard substance was added with labeled volume of reference standard diluent. The mixtures were incubated for 15 min at room temperature. Then the mixtures were gently mixed to completely dissolve the substance to prepare a reference standard stock at a final concentration of 1000 μg/mL.
4.4 Dilution of samples: The sample in each group was diluted by […], i.e., a 2-fold dilution with sample assay buffer followed by another two-fold dilution with standard diluent.
4.5 The diluted samples or standards of different concentrations were added into corresponding wells at 100 μL/well respectively, and a background correcting well (or a blank well) was set by adding only TMB buffer and terminating solution. The wells were sealed with a transparent film and incubated at room temperature for 120 min.
4.6 The plate was subjected to 5 washes, each with 300 μL of washing buffer for 15-30 sec. The plate was dried on thick absorbent paper after the last wash.
4.7 Biotinylated antibody was added at 100 μL/well (Note: the biotinylated antibody was prepared in advance and could be used directly without further dilution). The wells were sealed with a transparent film and incubated at room temperature for 60 min.
4.8 The plate was subjected to 5 washes, each with 300 μL of washing buffer for 15-30 sec. The plate was dried on thick absorbent paper after the last wash.
4.9 Horseradish peroxidase-labeled streptavidin was added at 100 μL/well. The wells were sealed with a white film and incubated away from light at room temperature for 20 min.
4.10 The plate was subjected to 5 washes, each with 300 μL of washing buffer for 15-30 sec. The plate was dried on thick absorbent paper after the last wash.
4.11 The chromogenic reagent TMB was added 100 μL/well. The wells were sealed with a white film and incubated away from light at room temperature for 20 min.
4.12 The terminating solution was added at 50 μL/well and A450 value was measured right after mixing.

[2] = molecular target: T1, CYP2C9 (Homo sapiens, UniProt P11712); experiment: CYP450 inhibition in human liver microsomes, CYP2C9; format: in vitro ADME; settings: human liver microsomes, probe diclofenac; read-out: IC50, subtype 2C9
T1 construct: tissue Corning (USA); host or cells: mixed human liver microsomes
T1 sequence (P11712 whole entry): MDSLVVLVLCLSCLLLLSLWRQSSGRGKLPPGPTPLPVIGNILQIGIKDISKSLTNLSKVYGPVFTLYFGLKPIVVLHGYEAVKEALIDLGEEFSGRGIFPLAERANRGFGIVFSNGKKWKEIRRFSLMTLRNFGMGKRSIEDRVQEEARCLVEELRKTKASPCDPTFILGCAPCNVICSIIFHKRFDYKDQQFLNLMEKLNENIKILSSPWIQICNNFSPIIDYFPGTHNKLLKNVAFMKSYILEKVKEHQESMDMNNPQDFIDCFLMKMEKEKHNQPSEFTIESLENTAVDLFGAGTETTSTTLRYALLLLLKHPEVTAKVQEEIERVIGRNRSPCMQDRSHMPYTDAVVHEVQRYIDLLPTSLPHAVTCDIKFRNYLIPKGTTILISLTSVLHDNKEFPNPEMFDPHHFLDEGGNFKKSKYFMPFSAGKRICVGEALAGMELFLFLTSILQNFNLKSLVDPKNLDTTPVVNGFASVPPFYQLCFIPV
Experimental: (§1) This study was intended to investigate the inhibitory effect of the test compounds on five major CYP450 enzyme subtypes CYP1A2, 2C9, 2C19, 2D6 and 3A4 in human liver microsomes. The mixed human liver microsomes used in this assay were purchased from Corning (USA). The test compounds were co-incubated at 7 concentrations with human liver microsomes and five probe substrates (phenacetin for CYP1a2, diclofenac for CYP2C9, mephenytoin for CYP2C19, dextromethorphan for CYP2D6, midazolam for CYP3A4-M, mixed). The reaction was initiated by adding coenzyme NADPH, and terminated by adding acetonitrile containing internal standard. After the proteins were precipitated, the supernatant was centrifuged. The characteristic metabolites in the supernatant (acetaminophen for CYP1A2, 4-hydroxydiclofenac for CYP2C9, 4-hydroxymephenytoin for CYP2C19, dextrorphan for CYP2D6, 1-hydroxymidazolam for CYP3A4-M) were analyzed by LC-MS/MS. The influence of the test compounds on production of the characteristic metabolites was finally analyzed on the basis of the data obtained. A selective inhibitor (ketoconazole for CYP3A4-M) was used as positive control. All samples were tested in duplicate.

[3] = molecular target: T2, CYP1A2 (Homo sapiens, UniProt P05177); experiment: CYP450 inhibition in human liver microsomes, CYP1A2; format: in vitro ADME; settings: human liver microsomes, probe phenacetin; read-out: IC50, subtype 1A2
T2 construct: tissue Corning (USA); host or cells: mixed human liver microsomes
T2 sequence (P05177 1-516): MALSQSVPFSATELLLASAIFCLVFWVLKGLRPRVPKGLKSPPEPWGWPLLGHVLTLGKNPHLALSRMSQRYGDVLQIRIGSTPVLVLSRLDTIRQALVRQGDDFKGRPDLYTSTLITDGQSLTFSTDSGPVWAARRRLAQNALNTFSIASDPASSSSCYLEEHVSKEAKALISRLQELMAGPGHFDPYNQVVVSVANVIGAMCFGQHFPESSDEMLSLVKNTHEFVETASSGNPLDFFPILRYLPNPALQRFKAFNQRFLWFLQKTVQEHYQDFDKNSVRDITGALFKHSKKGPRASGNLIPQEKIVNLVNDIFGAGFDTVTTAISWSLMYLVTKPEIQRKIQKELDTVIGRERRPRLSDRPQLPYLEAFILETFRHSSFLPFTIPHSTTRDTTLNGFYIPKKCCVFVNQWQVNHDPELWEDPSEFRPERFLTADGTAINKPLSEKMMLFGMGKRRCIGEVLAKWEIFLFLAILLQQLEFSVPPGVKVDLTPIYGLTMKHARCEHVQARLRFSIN
Experimental: as §1

[4] = molecular target: T3, CYP3A4 (Homo sapiens, UniProt P08684); experiment: CYP450 inhibition in human liver microsomes, CYP3A4; format: in vitro ADME; settings: human liver microsomes, probe midazolam; read-out: IC50, subtype 3A4
T3 construct: tissue Corning (USA); host or cells: mixed human liver microsomes
T3 sequence (P08684 whole entry): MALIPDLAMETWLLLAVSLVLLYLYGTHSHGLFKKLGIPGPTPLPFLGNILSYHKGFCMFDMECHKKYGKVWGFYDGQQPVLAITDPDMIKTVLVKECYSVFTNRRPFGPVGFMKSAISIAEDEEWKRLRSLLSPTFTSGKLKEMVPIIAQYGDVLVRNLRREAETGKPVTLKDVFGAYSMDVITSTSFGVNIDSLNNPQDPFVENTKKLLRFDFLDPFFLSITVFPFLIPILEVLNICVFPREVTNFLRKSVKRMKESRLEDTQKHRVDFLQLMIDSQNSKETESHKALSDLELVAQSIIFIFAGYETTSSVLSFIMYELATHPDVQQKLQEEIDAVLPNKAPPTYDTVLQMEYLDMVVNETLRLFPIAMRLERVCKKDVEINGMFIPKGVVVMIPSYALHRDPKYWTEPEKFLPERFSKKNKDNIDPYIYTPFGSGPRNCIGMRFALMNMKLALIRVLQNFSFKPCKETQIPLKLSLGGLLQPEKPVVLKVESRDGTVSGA
Experimental: as §1

[5] = tested on: cytokine TNF-α in LPS-induced human PBMCs; experiment: Inhibition of cytokine TNF-α in LPS-induced human PBMC (ELISA); format: cell-based; settings: 0.1 μg/mL LPS for 4 h
Experimental: Procedures: Cytokine production in human PBMCs (peripheral blood mononuclear cells) was induced by LPS (lipopolysaccharide) in vitro, and the inhibitory effect of the compounds on induced cytokine production in human PBMCs was investigated.
Fresh human PBMC was centrifuged for 10 min at room temperature at 450×g and the supernatant was discarded. The PBMC was resuspended in complete RPMI 1640 medium.
The assay was performed in complete medium. PBMC was seeded at a density of 1×10^5 cells/well into a 96-well plate. The compounds according to the present disclosure were serially diluted in an isotonic 100% DMSO solution to 8 concentrations from 20 μM to 0.002 nM respectively, with the final DMSO concentration being 0.25%. Cells were pre-incubated with the formulated compounds for 30 min at 37° C. prior to stimulation. To induce cytokine secretion, cells were stimulated with 0.1 μg/mL LPS (Sigma, Escherichia coli O111:B4) for 4 h at 37° C. The cell culture supernatant was then separated by centrifugation at 450×g for 10 min at room temperature.
The amount of secreted TNF-α in the supernatants was determined using the human TNF-α ELISA kit according to the manufacturer's instruction.
The readings of absorbance at A450 were measured with a microplate reader SpectraMax i3x (Molecular Device) for calculating the inhibition of the compounds, and IC50 values were calculated with GraphPad Prism 7.0 software respectively.

IC50 [2] [µM]	IC50 [3] [µM]	IC50 [4] [µM]	Structure (SMILES)	Inhibition rate of IL-6 [1] [%]	IC50 [5] [nM]
> 30	> 30	> 30	COc1cc2nn([C@H]3CC[C@](C)(O)CC3)cc2cc1NC(=O)c1cccc(C(F)(F)F)n1 [MY-004-126-1]	97.05	71.8
20.9	> 30	> 30	CC(C)(O)c1cc2nn([C@H]3CC[C@](C)(O)CC3)cc2cc1NC(=O)c1cccc(C(C)(F)F)n1 [MY-004-165]		
			COc1cc2nn([C@H]3CC[C@@](C)(O)CC3)cc2cc1NC(=O)c1cccc(C(F)(F)F)n1 [MY-004-126-2]	93.39	
			CN(C)c1cc2nn([C@H]3CC[C@H](O)CC3)cc2cc1NC(=O)c1cccc(C(F)(F)F)n1 [MY-004-153]		191
			CN(C)c1cc2nn([C@H]3C[C@H](C(C)(C)O)C3)cc2cc1NC(=O)c1cccc(C(F)(F)F)n1 [MY-004-089]	94.33	165

Structure (SMILES)	IC50 [2] [µM]	IC50 [3] [µM]	IC50 [4] [µM]	Inhibition rate of IL-6 [1] [%]	IC50 [5] [nM]
COc1cc2nn([C@H]3CC[C@H](O)CC3)cc2cc1NC(=O)c1cccc(C(F)(F)F)n1 [MY-004-127-1]	> 30	> 30	> 30	83.28	
